Measurements reported in patent US12435089B2, “3-oxadiazolyl substituted pyrazolo[1,5,a]pyrimidines for ROS1, NTRK, and ALK mediated diseases” (TYK MEDICINES, INC., priority 2019, dated 2025).
Read-outs that look alike come from different tables or passages of the source.

Legend:
[1] = biological target: ROS1 (G2032R) (Homo sapiens (Human), UniProt P08922, G2032R); test: Radio-tagged HotSpot kinase assay, ROS1 (G2032R)
Experimental: (§2) Inhibition of protein kinase activity by compounds was carried out on the Radio-tagged HotSpot kinase experimental platform of Reaction Biology Corporation. Fresh reaction solution (20 mM HEPESpH 7.5, 10 mM MgCl2, 1 mM EGTA, 0.02% Brij35, 0.02 mg/ml BSA, 0.1 mM Na3VO4, 2 mM DTT, 1% DMSO) containing corresponding substrates was prepared, cofactor and kinase to be tested were added into the above solution and mixed gently. Echo550 pipetting system was used to add the test compound DMSO solution to each well (the blank control group was added with the corresponding volume of DMSO), then 33P-ATP (with a final specific activity of 0.01 μCi/μL) was added to start the reaction. The reaction solution was incubated at room temperature for 120 minutes.

[2] = biological target: TRKB (Homo sapiens (Human), UniProt Q16620); test: Radio-tagged HotSpot kinase assay, TRKB; format: biochemical; settings: 33P-ATP, 120 min, room temperature
Experimental: as §2

[3] = biological target: TRKA (Homo sapiens (Human), UniProt P04629); test: Radio-tagged HotSpot kinase assay, TRKA;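 further: kinase activity measured through incorporation of 33P from labelled ATP into substrate, 120 min at room temperature, relative to a DMSO-only blank control, reported as inhibition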
Experimental: as §2

[4] = biological target: ALK (Homo sapiens (Human), UniProt Q9UM73); test: Radio-tagged HotSpot kinase assay, ALK; format: biochemical; settings: 33P-ATP, 120 min, room temperature
Experimental: as §2

[5] = biological target: TRKA (G595R) (Homo sapiens (Human), UniProt P04629, G595R); test: Radio-tagged HotSpot kinase assay, TRKA (G595R)
Experimental: as §2

[6] = biological target: ALK (G1202R) (Homo sapiens (Human), UniProt Q9UM73, G1202R); test: Radio-tagged HotSpot kinase assay, ALK (G1202R); format: biochemical; settings: 33P-ATP, 120 min, room temperature
Experimental: as §2

[7] = biological target: TRKA (G677C) (Homo sapiens, UniProt P04629, G667C); test: Radio-tagged HotSpot kinase assay, TRKA (G677C); format: biochemical; settings: 33P-ATP, 120 min, room temperature
Experimental: as §2

[8] = biological target: TRKC (Homo sapiens (Human), UniProt Q16288); test: Radio-tagged HotSpot kinase assay, TRKC; format: biochemical; settings: 33P-ATP, 120 min, room temperature
Experimental: as §2

[9] = biological target: ROS1 (Homo sapiens (Human), UniProt P08922); test: Radio-tagged HotSpot kinase assay, ROS1; settings: read-out: ROS1 (IC50/nM); 33P-ATP, 120 min, room temperature
Experimental: as §2

[10] = test system: Ba/F3-CD74-ROS1-G2032R; test: Inhibition of cell proliferation (CellTiter-Glo), Ba/F3-CD74-ROS1-G2032R; format: cell-based; settings: 72 hours;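 further: Ba/F3 cell line expressing the CD74-ROS1 fusion with G2032R mutation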
Experimental: (§1) The experiment of inhibiting cell proliferation by compounds was carried out in Hefei Zhongkeprecedo Biomedical Technology Co., Ltd. The Ba/F3 engineered cell line stably transfected with different kinase genes was recovered with RPMI 1640 medium (Biological Industries, Israel)+10% fetal bovine serum (Biological Industries, Israel)+1% double antibody (Penicillin Streptomycin solution, Coring, USA) and cultivated two generations. The logarithmic growth phase cell suspension was taken, and 2000 cells/well were inoculated on 96-well white cell culture plate (Corning 3917, NY, USA) with a volume of 95 μL per well. 5 μL of 20×DMSO solution of the compound to be tested was added into the culture plate containing 95 μL of cell suspension. The blank control group was added with corresponding volume of DMSO, mixed well, and incubated in a 5% CO2 incubator at 37° C. for 72 hours. CellTiter-Glo was used to detect cell viability.

[11] = test system: Ba/F3-TEL-ALK-G1202R; test: Inhibition of cell proliferation (CellTiter-Glo), Ba/F3-TEL-ALK-G1202R; format: cell-based; settings: 72 hours
Experimental: as §1

[12] = test system: Ba/F3-LMNA-NTRK1; test: Inhibition of cell proliferation (CellTiter-Glo), Ba/F3-LMNA-NTRK1; format: cell-based; settings: 72 hours
Experimental: as §1

[13] = test system: Ba/F3-CD74-ROS1; test: Inhibition of cell proliferation (CellTiter-Glo), Ba/F3-CD74-ROS1; format: cell-based; settings: 72 hours
Experimental: as §1

[14] = test system: Ba/F3-LMNA-NTRK1-G595R; test: Inhibition of cell proliferation (CellTiter-Glo), Ba/F3-LMNA-NTRK1-G595R; format: cell-based; settings: 72 hours
Experimental: as §1

[15] = read-out: ROS1 (G2032R) (IC50/nM), 33P-ATP, 120 min, room temperature
[16] = read-out: TRKA (IC50/nM), 33P-ATP, 120 min, room temperature

Sequence of ALK (G1202R) (Q9UM73 19-1620 G1202R): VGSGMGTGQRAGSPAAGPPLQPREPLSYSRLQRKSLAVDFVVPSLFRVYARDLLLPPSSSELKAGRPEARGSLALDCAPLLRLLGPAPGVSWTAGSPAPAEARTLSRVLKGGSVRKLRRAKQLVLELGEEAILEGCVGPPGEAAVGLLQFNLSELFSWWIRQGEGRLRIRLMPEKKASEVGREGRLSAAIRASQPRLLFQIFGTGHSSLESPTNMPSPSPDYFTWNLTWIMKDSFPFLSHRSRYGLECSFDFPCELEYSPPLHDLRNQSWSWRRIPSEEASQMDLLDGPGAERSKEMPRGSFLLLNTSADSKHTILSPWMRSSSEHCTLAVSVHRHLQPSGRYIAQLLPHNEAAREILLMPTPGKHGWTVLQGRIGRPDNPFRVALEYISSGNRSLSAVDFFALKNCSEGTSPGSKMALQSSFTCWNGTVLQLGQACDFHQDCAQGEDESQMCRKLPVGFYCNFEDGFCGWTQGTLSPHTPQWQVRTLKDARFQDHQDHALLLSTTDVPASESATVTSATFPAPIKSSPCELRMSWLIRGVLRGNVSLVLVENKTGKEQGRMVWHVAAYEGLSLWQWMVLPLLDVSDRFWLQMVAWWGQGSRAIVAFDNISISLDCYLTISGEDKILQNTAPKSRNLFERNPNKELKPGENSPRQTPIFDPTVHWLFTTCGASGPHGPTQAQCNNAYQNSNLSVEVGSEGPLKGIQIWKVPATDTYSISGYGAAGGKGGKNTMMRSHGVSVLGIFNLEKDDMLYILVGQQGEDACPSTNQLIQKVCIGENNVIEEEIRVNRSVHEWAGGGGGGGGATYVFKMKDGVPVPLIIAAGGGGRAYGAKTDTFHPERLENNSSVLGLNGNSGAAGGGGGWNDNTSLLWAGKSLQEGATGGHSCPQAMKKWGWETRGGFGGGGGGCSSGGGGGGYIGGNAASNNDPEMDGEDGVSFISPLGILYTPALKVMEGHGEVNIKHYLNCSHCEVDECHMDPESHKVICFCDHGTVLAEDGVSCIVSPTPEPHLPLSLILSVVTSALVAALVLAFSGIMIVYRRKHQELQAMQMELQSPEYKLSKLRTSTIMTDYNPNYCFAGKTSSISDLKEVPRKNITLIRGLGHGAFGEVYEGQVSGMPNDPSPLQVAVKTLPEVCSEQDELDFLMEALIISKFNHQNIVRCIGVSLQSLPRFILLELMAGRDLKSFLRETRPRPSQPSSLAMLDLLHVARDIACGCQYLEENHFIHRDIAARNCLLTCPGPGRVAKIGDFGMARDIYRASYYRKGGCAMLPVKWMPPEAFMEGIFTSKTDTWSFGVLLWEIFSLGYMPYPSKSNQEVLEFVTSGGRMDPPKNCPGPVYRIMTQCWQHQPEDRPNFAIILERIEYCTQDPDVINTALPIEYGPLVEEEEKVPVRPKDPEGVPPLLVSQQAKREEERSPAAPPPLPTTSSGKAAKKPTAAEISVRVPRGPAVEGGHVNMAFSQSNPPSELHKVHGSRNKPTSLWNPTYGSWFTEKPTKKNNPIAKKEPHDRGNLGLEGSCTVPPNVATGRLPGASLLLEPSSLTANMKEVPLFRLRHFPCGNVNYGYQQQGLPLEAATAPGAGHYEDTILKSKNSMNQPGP
Sequence of TRKA (G677C) (P04629 33-796 G667C limits assumed): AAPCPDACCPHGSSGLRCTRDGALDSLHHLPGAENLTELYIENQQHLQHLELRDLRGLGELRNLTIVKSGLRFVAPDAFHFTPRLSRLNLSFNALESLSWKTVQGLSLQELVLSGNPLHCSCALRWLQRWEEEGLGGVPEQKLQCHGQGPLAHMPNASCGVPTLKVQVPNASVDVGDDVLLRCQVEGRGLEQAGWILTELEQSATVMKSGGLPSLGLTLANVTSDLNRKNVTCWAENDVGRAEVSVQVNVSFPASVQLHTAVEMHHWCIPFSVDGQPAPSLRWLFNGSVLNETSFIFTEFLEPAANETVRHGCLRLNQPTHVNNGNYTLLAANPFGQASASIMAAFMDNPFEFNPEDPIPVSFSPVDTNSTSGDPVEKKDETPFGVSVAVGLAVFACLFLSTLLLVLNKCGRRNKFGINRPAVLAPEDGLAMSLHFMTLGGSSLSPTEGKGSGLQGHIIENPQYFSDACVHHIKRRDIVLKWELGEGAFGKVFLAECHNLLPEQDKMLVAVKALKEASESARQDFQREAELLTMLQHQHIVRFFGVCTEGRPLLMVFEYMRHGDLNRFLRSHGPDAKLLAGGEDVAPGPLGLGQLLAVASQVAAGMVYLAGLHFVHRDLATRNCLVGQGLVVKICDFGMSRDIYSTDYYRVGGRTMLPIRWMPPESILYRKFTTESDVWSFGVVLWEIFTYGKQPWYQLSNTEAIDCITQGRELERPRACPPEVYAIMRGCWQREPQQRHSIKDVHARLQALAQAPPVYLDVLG
Sequence of TRKB (Q16620 32-822): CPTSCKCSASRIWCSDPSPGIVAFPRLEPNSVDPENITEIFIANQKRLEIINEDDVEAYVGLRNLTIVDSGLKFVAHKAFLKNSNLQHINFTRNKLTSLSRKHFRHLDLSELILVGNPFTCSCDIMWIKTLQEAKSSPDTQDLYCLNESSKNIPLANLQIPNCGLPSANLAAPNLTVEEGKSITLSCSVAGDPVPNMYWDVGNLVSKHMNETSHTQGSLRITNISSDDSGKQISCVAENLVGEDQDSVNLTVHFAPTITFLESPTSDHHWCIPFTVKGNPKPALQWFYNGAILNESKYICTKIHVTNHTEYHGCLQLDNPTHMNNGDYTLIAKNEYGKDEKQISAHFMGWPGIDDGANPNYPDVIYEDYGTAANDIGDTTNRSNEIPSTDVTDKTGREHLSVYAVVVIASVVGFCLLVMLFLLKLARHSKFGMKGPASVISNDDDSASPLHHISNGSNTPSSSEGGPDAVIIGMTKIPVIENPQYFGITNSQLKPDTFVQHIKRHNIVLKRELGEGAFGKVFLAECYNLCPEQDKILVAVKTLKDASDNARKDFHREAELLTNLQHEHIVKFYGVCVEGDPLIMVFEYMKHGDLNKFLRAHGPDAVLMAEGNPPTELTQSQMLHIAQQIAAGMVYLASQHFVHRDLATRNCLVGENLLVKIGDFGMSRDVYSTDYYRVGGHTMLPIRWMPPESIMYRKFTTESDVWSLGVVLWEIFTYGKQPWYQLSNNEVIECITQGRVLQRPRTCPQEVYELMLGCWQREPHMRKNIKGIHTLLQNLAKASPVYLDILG
Sequence of TRKA (G595R) (P04629 33-796 G595R): as the sequence (P04629 33-796 G667C limits assumed) above, with G563R, C635G counted along it
Sequence of TRKA (P04629 33-796): as the sequence (P04629 33-796 G667C limits assumed) above, with C635G counted along it
Sequence of TRKC (Q16288 32-839): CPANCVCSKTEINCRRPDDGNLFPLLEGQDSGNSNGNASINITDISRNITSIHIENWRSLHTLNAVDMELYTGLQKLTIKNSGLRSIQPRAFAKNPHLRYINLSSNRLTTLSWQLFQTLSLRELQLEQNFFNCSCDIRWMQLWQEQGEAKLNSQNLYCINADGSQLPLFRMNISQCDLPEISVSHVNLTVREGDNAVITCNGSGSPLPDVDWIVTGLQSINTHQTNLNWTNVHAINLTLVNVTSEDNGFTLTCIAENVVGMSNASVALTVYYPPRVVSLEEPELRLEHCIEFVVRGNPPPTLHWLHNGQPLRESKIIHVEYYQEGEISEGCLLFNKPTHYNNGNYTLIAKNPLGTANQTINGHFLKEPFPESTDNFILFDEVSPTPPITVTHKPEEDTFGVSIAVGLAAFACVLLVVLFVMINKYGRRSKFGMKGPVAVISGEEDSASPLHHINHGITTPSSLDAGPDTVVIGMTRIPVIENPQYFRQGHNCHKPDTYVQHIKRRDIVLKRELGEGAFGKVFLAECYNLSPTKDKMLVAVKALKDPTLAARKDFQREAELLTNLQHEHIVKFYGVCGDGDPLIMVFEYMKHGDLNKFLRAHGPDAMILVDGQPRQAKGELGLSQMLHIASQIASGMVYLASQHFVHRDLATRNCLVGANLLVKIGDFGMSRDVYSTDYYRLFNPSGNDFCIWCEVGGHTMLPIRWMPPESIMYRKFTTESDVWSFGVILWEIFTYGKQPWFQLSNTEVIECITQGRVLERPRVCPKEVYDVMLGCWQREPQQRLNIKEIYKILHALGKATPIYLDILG
Sequence of ALK (Q9UM73 19-1620): as the sequence (Q9UM73 19-1620 G1202R) above, with R1184G counted along it

SMILES | IC50 [1, 15] [nM] | IC50 [2] [nM] | IC50 [3] [nM] | IC50 [4] [nM] | IC50 [5] [nM] | IC50 [6] [nM] | IC50 [7] [nM] | IC50 [8] [nM] | IC50 [9] [nM] | IC50 [3, 16] [nM] | IC50 [1] [nM] | IC50 [10] [nM] | IC50 [11] [nM] | IC50 [12] [nM] | IC50 [13] [nM] | IC50 [14] [nM]
COc1ncc(F)cc1[C@@H](C)Nc1ccn2ncc(C3=NOC(C)(C)N3)c2n1 [Example 28] | < 0.5 | < 0.5 | – | 5 to 50 | 0.5 to 5 | 0.5 to 5 | 5 to 50 | < 0.5 | < 0.5 | < 0.5 | – | – | – | – | – | –
CCc1ccc(F)cc1[C@@H](C)Nc1ccn2ncc(C3=NOC(C)(C)N3)c2n1 [Example 52] | – | 0.5 to 5 | 0.5 to 5 | 50 to 500 | 5 to 50 | 5 to 50 | 50 to 500 | < 0.5 | < 0.5 | – | 0.5 to 5 | – | – | – | – | –
CC(C)Oc1ccc(F)cc1[C@@H](C)Nc1ccn2ncc(C3=NOC(C)(C)N3)c2n1 [Example 51] | < 0.5 | < 0.5 | 0.5 to 5 | 5 to 50 | 5 to 50 | 0.5 to 5 | 5 to 50 | < 0.5 | < 0.5 | – | – | – | – | – | – | –
COc1ccc(F)cc1[C@@H](C)Nc1ccn2ncc(C3=NOC(C)(C)N3)c2n1 [Example 10] | < 0.5 | < 0.5 | – | 5 to 50 | 0.5 to 5 | 0.5 to 5 | 0.5 to 5 | < 0.5 | < 0.5 | < 0.5 | – | 7.9 | 87.5 | 1.3 | 2.8 | 2.2

Next, values leading:

IC50 [1, 15] [nM] | IC50 [2] [nM] | IC50 [3] [nM] | IC50 [4] [nM] | IC50 [5] [nM] | IC50 [6] [nM] | IC50 [7] [nM] | IC50 [8] [nM] | IC50 [9] [nM] | IC50 [3, 16] [nM] | IC50 [1] [nM] | IC50 [10] [nM] | IC50 [11] [nM] | IC50 [12] [nM] | IC50 [13] [nM] | IC50 [14] [nM] | SMILES
< 0.5 | < 0.5 | 0.5 to 5 | 5 to 50 | 0.5 to 5 | 0.5 to 5 | 0.5 to 5 | < 0.5 | < 0.5 | – | – | – | – | – | – | – | CCOc1ccc(F)cc1[C@@H](C)Nc1ccn2ncc(C3=NOC(C)(C)N3)c2n1 [Example 50]
< 0.5 | < 0.5 | 0.5 to 5 | 0.5 to 5 | 5 to 50 | 5 to 50 | 5 to 50 | < 0.5 | < 0.5 | – | – | – | – | – | – | – | C[C@@H](Nc1ccn2ncc(C3=NOC(C)(C)N3)c2n1)c1cc(F)ccc1F [Example 5]
